# Laboratory results reported in US20060189546A1, “Compounds for treating autoimmune and demyelinating diseases” (priority 2005, published 2006).
# Tested on: colorectal cancer cell lines (HT29 & HCT116)
# Assay: Microarray gene expression, cells grown with Symadex at the GI50 concentration
# Type: cell-based, human
# Source text: Two colorectal cancer cell lines (HT29 & HCT116) were chosen for study, whose behavior as rapidly proliferating invasive cells could be generalized to many other such cell types from different tissue origins. The two lines were immortalized colon carcinomas. Their gene expression patterns are known to mimic the behavior of neuro-enteric cells and therefore provide an appropriate simulation of the kinds of regulatory patterns that would be found in cells of similar epithelial or endothelial origin. Cells with these ontological roots are also suitable models for the kinds of autoimmune and inflammatory susceptibilities that are common in tissues of neuroenteric origin, such as those in which inflammatory bowel disease would present itself.
# Frozen cell pellets were lysed in triplicate and total RNA isolated by purification over spin columns (all reagents from Ambion). After QC acceptance for purity, total RNA was converted to cRNA by linear amplification and 10 μg samples were applied to CodeLink Human Whole Genome Bioarrays (GE Healthcare and GenUs Biosystems).
# Arrays were processed in triplicate and comparisons made after robust statistical analysis of replicate variability. […] False discovery rates and representation in standardized gene ontologies/pathways were then determined by filtering the “fold” changes in expression with open access software packages, EASE and GoMiner, and with Pathways Analysis (Ingenuity Systems). Functional annotations were then explored further in the MedMiner literature search environment.
# A listing of these is shown in Table 3, in which the first column data presents the fold change against control, the second column cites the gene symbol, the third column cites the Genbank Accession, and the fourth column provides an abridged description of the gene's function.
smiles,measurement,setting,value
"CCN(CC)CCNc1ccc2ncn3c4ccc(O)cc4c(=O)c1c23 [Symadex™, 5-[[(diethylamino)ethyl]amino]-8-hydroxyimidazo[4,5,1-de]-acridine-6-one]",fold down-regulation of SULT4A1,,~300 fold
same,fold down-regulation of SYNE1,,1500 fold
same,Mean fold change over control: NT5C3,AA188573,−2.08
same,Mean fold change over control: SLC9A7,AA279477,−8.20
same,Mean fold change over control: PPP2R5A,AA496141,−36.93
same,Mean fold change over control: ACYP1,AA664719,−2.07
same,Mean fold change over control: PRLR,AA708864,−25.92
same,Mean fold change over control: UBL4,AA873769,−10.12
same,Mean fold change over control: PPP1R9A,AB033048,−26.54
same,Mean fold change over control: MAP6,AB058781,−12.89
same,Mean fold change over control: ASAH2,AF250847,−2.21
same,Mean fold change over control: MTIF2,AI064964,−59.05
same,Mean fold change over control: NEB,AI079911,−6.89
same,Mean fold change over control: MGAT4A,AI364966,−10.83
same,Mean fold change over control: EIF2AK4,AI630242,−15.24
same,Mean fold change over control: ATP1B4,AI659245,−8.24
same,Mean fold change over control: VAPA,AI671488,−12.46
same,Mean fold change over control: PAFAH1B1,AI674778,−12.85
same,Mean fold change over control: PMPCB,AK090763,−15.36
same,Mean fold change over control: IL1RAP,AK095107,−11.23
same,Mean fold change over control: PFKL,AK098228,−10.55
same,Mean fold change over control: KIF5A,AL118561,−11.04
same,Mean fold change over control: LNX,AL565198,−87.48
same,Mean fold change over control: ACTA2,AL713608,−17.00
same,Mean fold change over control: DHFR,AU127142,−2.95
same,Mean fold change over control: SIN3B,AW051366,−2.93
same,Mean fold change over control: NDUFV3,AW139027,−10.52
same,Mean fold change over control: TSFM,AW603708,−2.11
same,Mean fold change over control: PXN,AW969600,−6.00
same,Mean fold change over control: PTPRG,BC047734,−18.91
same,Mean fold change over control: TRA2A,BF093914,−2.55
same,Mean fold change over control: RPL4,BF308998,−39.17
same,Mean fold change over control: PLXNA3,BF926082,−8.04
same,Mean fold change over control: ITGA9,BF959890,−27.91
same,Mean fold change over control: MT2A,BG505162,−2.09
same,Mean fold change over control: PECAM1,BG739826,−17.53
same,Mean fold change over control: NCF1,BI021745,−33.67
same,Mean fold change over control: FNTA,BI715309,−9.02
same,Mean fold change over control: RB1,BI769614,−84.42
same,Mean fold change over control: ENG,BM665467,−6.35
same,Mean fold change over control: MT1A,BM684446,−16.21
same,Mean fold change over control: RPS3,BM693455,−68.37
same,Mean fold change over control: MAPT,BM714794,−26.53
same,Mean fold change over control: NT5E,BM994339,−17.10
same,Mean fold change over control: MXD3,BQ053282,−2.66
same,Mean fold change over control: RYR3,BU533957,−2.43
same,Mean fold change over control: ZNF145,BU607554,−30.18
same,Mean fold change over control: CASR,BX106711,−11.45
same,Mean fold change over control: EIF4EL3,BX111619,−15.36
same,Mean fold change over control: GNAL,BX116836,−18.16
same,Mean fold change over control: GPR1,CB992712,−11.49
same,Mean fold change over control: OLR1,CD678960,−16.33
same,Mean fold change over control: TMPO,H57815,−2.64
same,Mean fold change over control: ACVRL1,NM_000020,−9.43
same,Mean fold change over control: AGT,NM_000029,−22.71
same,Mean fold change over control: APOA1,NM_000039,−13.15
same,Mean fold change over control: BLM,NM_000057,−2.58
same,Mean fold change over control: COL1A2,NM_000089,−54.48
same,Mean fold change over control: CYP19A1,NM_000103,−20.65
same,Mean fold change over control: FBN1,NM_000138,−13.00
same,Mean fold change over control: GIPR,NM_000164,−19.73
same,Mean fold change over control: GLA,NM_000169,−2.51
same,Mean fold change over control: SPTB,NM_000347,−16.71
same,Mean fold change over control: ITGA2B,NM_000419,−10.64
same,Mean fold change over control: NCF2,NM_000433,−21.83
same,Mean fold change over control: OXCT,NM_000436,−2.68
same,Mean fold change over control: SHOX,NM_000451,−7.34
same,Mean fold change over control: HNF4A,NM_000457,−7.42
same,Mean fold change over control: NR0B1,NM_000475,−15.94
same,Mean fold change over control: TYRP1,NM_000550,−12.47
same,Mean fold change over control: IL13RA2,NM_000640,−9.79
same,Mean fold change over control: ADH1C,NM_000669,−12.02
same,Mean fold change over control: CHRNA5,NM_000745,−2.14
same,Mean fold change over control: DCK,NM_000788,−1.94
same,Mean fold change over control: GABRA3,NM_000808,−10.14
same,Mean fold change over control: PRIM1,NM_000946,−3.47
same,Mean fold change over control: SCNN1G,NM_001039,−14.52
same,Mean fold change over control: SLC6A4,NM_001045,−19.44
same,Mean fold change over control: ADCYAP1,NM_001117,−21.74
same,Mean fold change over control: BIRC5,NM_001168,−1.91
same,Mean fold change over control: PRDM1,NM_001198,−3.78
same,Mean fold change over control: CSE1L,NM_001316,−2.53
same,Mean fold change over control: TADA2L,NM_001488,−2.04
same,Mean fold change over control: HSPB2,NM_001541,−13.76
same,Mean fold change over control: BGN,NM_001711,−12.57
same,Mean fold change over control: CD58,NM_001779,−2.40
same,Mean fold change over control: CDC2,NM_001786,−2.09
same,Mean fold change over control: CDC25C,NM_001790,−2.99
same,Mean fold change over control: CKS1B,NM_001826,−2.38
same,Mean fold change over control: CREM,NM_001881,−2.13
same,Mean fold change over control: DSC3,NM_001941,−89.97
same,Mean fold change over control: DUT,NM_001948,−2.08
same,Mean fold change over control: FBLN1,NM_001996,−17.42
same,Mean fold change over control: FCAR,NM_002000,−11.62
same,Mean fold change over control: H2AFX,NM_002105,−2.31
same,Mean fold change over control: H2AFZ,NM_002106,−2.35
same,Mean fold change over control: HMGB1,NM_002128,−1.97
same,Mean fold change over control: HNRPA2B1,NM_002137,−1.93
same,Mean fold change over control: IL7R,NM_002185,−25.20
same,Mean fold change over control: ITGAE,NM_002208,−2.12
same,Mean fold change over control: KCNJ15,NM_002243,−6.83
same,Mean fold change over control: KRT13,NM_002274,−3.34
same,Mean fold change over control: LTB,NM_002341,−12.57
same,Mean fold change over control: MAD2L1,NM_002358,−3.14
same,Mean fold change over control: MAZ,NM_002383,−1.89
same,Mean fold change over control: NUDT1,NM_002452,−1.89
same,Mean fold change over control: NDUFA6,NM_002490,−2.51
same,Mean fold change over control: NDUFB3,NM_002491,−15.58
same,Mean fold change over control: NFKBIB,NM_002503,−2.01
same,Mean fold change over control: NTHL1,NM_002528,−2.34
same,Mean fold change over control: PAFAH1B2,NM_002572,−2.25
same,Mean fold change over control: PCSK2,NM_002594,−16.89
same,Mean fold change over control: POLE2,NM_002692,−2.62
same,Mean fold change over control: MAPK13,NM_002754,−2.14
same,Mean fold change over control: RAD51,NM_002875,−2.21
same,Mean fold change over control: RFC4,NM_002916,−2.02
same,Mean fold change over control: RPA3,NM_002947,−2.54
same,Mean fold change over control: SFRS3,NM_003017,−2.84
same,Mean fold change over control: ITSN1,NM_003024,−15.06
same,Mean fold change over control: SNAI2,NM_003068,−17.45
same,Mean fold change over control: SRY,NM_003140,−13.79
same,Mean fold change over control: TFAP2A,NM_003220,−11.00
same,Mean fold change over control: TK1,NM_003258,−2.34
same,Mean fold change over control: NR2E1,NM_003269,−54.82
same,Mean fold change over control: TNP1,NM_003284,−36.20
same,Mean fold change over control: TTK,NM_003318,−2.24
same,Mean fold change over control: VRK1,NM_003384,−2.79
same,Mean fold change over control: DEK,NM_003472,−2.36
same,Mean fold change over control: CSRP3,NM_003476,−26.26
same,Mean fold change over control: ZNF282,NM_003575,−31.24
same,Mean fold change over control: FOXN1,NM_003593,−9.60
same,Mean fold change over control: STK6,NM_003600,−1.92
same,Mean fold change over control: SEMA7A,NM_003612,−16.54
same,Mean fold change over control: HAT1,NM_003642,−2.63
same,Mean fold change over control: COPS3,NM_003653,−2.54
same,Mean fold change over control: CAMK1,NM_003656,−1.92
same,Mean fold change over control: IL1RL1,NM_003856,−28.60
